The values that follow come from patent publication US9499495B2, “Quinazolines and azaquinazolines as dual inhibitors of RAS/RAF/MEK/ERK and PI3K/AKT/PTEN/mTOR pathways” (Asana Biosciences, LLC, priority 2013, dated 2016).

For test [1], the target named is T1, B-RAFV600E (Homo sapiens, UniProt P15056, V600E).
T1 construct: purchased Millipore, USA 14-557
Nature of the test: B-RAFV600E radiometric assay. It counts as biochemical. The conditions noted are these: read-out: Kinase assay B-Raf. The procedure:
Compound inhibition for B-RAFV600E was determined through radiometric assay using a BRAF enzyme (Catalog No. 14-557, Millipore, USA) and MEK-K97M protein as a substrate (Catalog No. 0785-0000-1, ProqQinase GmbH, Germany). The B-RAF kinase catalyzes the phosphorylation of MEK protein in the presence of gamma ATP (PLC-101, Jonaki, CCMB, Hyderabad), cold ATP and Mg^2+.
The phosphorylated protein product is detected by the scintillation counter Topcount® machine (Perkin Elmer). This assay has been adapted from the method previously reported by Yeh et al. (2007, Clinical Cancer Research; 13, 1576-1583). The assay measures the B-RAF mediated transfer of 32P from the gamma position of radiolabeled ATP onto MEK1-KD. The labeled phosphorylated protein was measured in MicroBeta® Trilux Counter (Perkin Elmer). The assay was validated with reference compounds RAF1 Kinase Inhibitor I and ZM 336372 inhibitor which are reported to be inhibitors of B-RAF enzyme (Lackey, 2000, Medicinal Chemistry Letters; 10(3):223-226; Kupcho, “Fluorescent High throughput kinase cascade assays for inhibitor characterization, RAF-MEK-ERK pathway, www.invitrogen.com, and Hall-Jackson, 1999, Chemical Biology; 6(8):559-568). B-RAF enzyme mixture (13 μL) was added to compound wells containing 2 μL of the NCE in 1% DMSO and incubated for 45 min at rt on a shaking incubator at 300 rpm. MEK-K97M (0.5 μg) and cold ATP to a final concentration of 5 μM, and hot ATP 0.1 μCi in a volume of 10 μL was added to each well and incubated for 2 h at rt on a shaking incubator at 300 rpm. The reaction was stopped by addition of […] (13 μL) containing ATP (1 mM: 495 μL 1N HCl and 5 μL 100 mM ATP). Aliquot (30 μL) was then transferred to the center of a 2 cm×2 cm P81 paper. P81 paper was washed 8×5 min each with ortho-phosphoric acid (0.5%). P81 papers are washed twice with acetone for […] Assay squares were allowed to dry for […] at 37° C. P81 paper are transferred to Optiplate™ (Perkin Elmer) and counted in a Topcount® counter (Perkin Elmer). Data was plotted against the compound concentration to generate dose-response curves and IC50 values were determined using a sigmoidal dose response curve fit GraphPad Prism® v5 software.

Test [2] deals with T2, mTOR kinase (Homo sapiens, UniProt P42345).
T2 construct: purchased Millipore, US
T2 sequence (P42345 1362-2549 limits assumed): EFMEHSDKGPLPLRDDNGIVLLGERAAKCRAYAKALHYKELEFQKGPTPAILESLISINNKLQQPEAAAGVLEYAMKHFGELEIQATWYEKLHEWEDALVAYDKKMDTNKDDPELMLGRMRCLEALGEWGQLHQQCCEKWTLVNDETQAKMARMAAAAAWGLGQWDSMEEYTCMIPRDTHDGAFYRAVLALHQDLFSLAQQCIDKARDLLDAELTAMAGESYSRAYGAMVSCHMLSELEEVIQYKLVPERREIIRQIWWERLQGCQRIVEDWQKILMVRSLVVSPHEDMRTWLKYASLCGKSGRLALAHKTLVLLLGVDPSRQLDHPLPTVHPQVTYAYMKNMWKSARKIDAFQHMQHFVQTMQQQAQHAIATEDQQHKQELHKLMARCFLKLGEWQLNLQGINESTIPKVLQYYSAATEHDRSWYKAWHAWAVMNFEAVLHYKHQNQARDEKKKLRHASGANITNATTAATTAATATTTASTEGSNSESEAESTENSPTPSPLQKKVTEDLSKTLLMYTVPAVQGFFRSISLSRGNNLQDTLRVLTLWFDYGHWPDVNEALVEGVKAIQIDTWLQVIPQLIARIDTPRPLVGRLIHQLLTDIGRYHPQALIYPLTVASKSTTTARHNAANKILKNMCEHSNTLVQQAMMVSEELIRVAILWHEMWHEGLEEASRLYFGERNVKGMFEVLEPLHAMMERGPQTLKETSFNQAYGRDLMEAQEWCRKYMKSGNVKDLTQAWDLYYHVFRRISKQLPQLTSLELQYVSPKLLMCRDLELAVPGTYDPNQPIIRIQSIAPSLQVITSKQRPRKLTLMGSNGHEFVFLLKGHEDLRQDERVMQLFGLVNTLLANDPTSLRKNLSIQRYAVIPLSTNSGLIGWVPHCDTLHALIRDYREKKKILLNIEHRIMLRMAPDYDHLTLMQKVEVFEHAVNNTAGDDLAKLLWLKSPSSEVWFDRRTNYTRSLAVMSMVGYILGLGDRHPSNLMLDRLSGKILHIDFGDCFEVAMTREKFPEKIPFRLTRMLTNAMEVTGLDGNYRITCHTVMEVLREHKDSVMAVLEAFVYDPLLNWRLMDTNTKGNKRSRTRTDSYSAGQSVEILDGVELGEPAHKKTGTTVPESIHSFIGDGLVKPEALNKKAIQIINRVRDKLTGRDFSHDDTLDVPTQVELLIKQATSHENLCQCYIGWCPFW
Nature of the test: mTOR kinase TR-FRET assay. It counts as biochemical. How it is done:
Compound inhibition for mTOR kinase was determined by homogeneous TR-FRET assay using ULight-p70 S6K (Thr 389) peptide as substrate. mTOR enzyme (Millipore, US; […]) was used in the assay. The reaction buffer was HEPES (50 mM, pH 7.5), EGTA (1 mM), and MnCl2 (3 mM). Test compound was pre-incubated with mTOR for 30 min followed by 50 nM ULight-p70 S6K (Thr 389) peptide along with ATP (20 μM).
After incubating the reaction mixture for 30 min, Eu-labeled anti-phospho-substrate antibody (1 nM, Perkin Elmer, USA) was added. Fluorescence emission at […] was measured upon excitation at 340 nm. The compound dilution was carried out in 100% DMSO followed by a buffer dilution. The kinase reaction was incubated for 1 h at rt followed by the addition of substrate-ATP mix and incubated at rt for 1 h. The reaction was terminated by the addition of EDTA followed by the addition of detection mix. IC50 values were determined using a sigmoidal dose response curve fit, GraphPad Prism® v5 software.
(TR-FRET usually uses a lanthanide donor and a delayed reading to cut background.)

T1 sequence (P15056 416-766 V600E limits assumed): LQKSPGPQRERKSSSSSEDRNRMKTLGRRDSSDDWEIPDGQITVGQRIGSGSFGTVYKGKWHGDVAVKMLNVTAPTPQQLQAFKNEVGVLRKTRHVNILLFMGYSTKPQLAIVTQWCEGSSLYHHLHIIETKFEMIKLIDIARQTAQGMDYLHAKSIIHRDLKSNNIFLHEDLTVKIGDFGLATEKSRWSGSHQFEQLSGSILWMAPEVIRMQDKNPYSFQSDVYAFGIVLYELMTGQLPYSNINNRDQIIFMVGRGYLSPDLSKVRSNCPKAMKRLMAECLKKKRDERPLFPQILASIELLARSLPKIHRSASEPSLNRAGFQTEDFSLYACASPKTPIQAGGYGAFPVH

On to `Nc1ccc(-c2nc(N3CCOCC3)c3cc(-c4cccc(NS(=O)(=O)CCCF)c4F)cc(OCC(=O)O)c3n2)cn1` [Example 59, 2-((2-(6-aminopyridin-3-yl)-6-(2-fluoro-3-(3-fluoropropylsulfonamido)phenyl)-4-morpholino-quinazolin-8-yl)oxy)acetic acid 2,2,2-trifluoroacetate], for which the IC50 in test [1] was in the range of 100 to 1000 nM; in test [2], 1 to 100 nM.

In the case of `CCc1cc(-c2cccc(NS(=O)(=O)CCCF)c2F)cc2c(N3CCOC[C@H]3C)nc(-c3cnc(N)nc3)nc12` [Example 119, (R)-N-(3-(2-(2-aminopyrimidin-5-yl)-8-ethyl-4-(3-methylmorpholino)quinazolin-6-yl)-2-fluorophenyl)-3-fluoropropane-1-sulfonamide], the IC50 in test [1] lay in the range of 1 to 100 nM; in test [2] it was 100 to 1000 nM.

Take `COc1cc(-c2c(Cl)ccc(NS(=O)(=O)CCCF)c2F)cc2c(N3CCOCC3)nc(-c3ccc(N)nc3)nc12` [Example 85, N-(3-(2-(6-aminopyridin-3-yl)-8-methoxy-4-morpholinoquinazolin-6-yl)-4-chloro-2-fluorophenyl)-3-fluoropropane-1-sulfonamide]: the IC50 in test [1] fell in the range of 1 to 100 nM; in test [2], 100 to 1000 nM.

Turning to `CCCS(=O)(=O)Nc1cccc(-c2cc(OC)c3nc(-c4ccc(NC(=O)Nc5ccncc5)cc4)nc(N4CCOCC4)c3c2)c1F` [Example 34, N-(2-fluoro-3-(8-methoxy-4-morpholino-2-(4-(3-(pyridin-4-yl)ureido)phenyl)quinazolin-6-yl)phenyl) propane-1-sulfonamide], the IC50 in test [1] lay in the range of 100 to 1000 nM; in test [2], 1 to 100 nM.

Take `COc1cc(-c2cccc(NS(=O)(=O)CCCF)c2F)cc2c(N3CCOCC3)nc(-c3ccc(NC(C)=O)nc3)nc12` [Example 124, N-(5-(6-(2-fluoro-3-(3-fluoropropylsulfonamido)phenyl)-8-methoxy-4-morpholinoquinazolin-2-yl)pyridin-2-yl)acetamide]: the IC50 in test [1] lay in the range of 1 to 100 nM; in test [2], 100 to 1000 nM.

For the compound `COc1cc(-c2cccc(NS(=O)(=O)CCCF)c2F)cc2c(N3CCOCC3)nc(-c3ccc(NS(C)(=O)=O)cc3)nc12` [Example 126, 3-f1uoro-N-(2-fluoro-3-(8-methoxy-2-(4-(methylsulfonamido)phenyl)-4-morpholinoquinazolin-6-yl)phenyl)propane-1-sulfonamide], the IC50 in test [1] and in test [2] was 100 to 1000 nM in each case.

With `CCCCS(=O)(=O)Nc1cccc(-c2cc(OC)c3nc(-c4cnc(N)nc4)nc(N4CCOCC4)c3c2)c1F` [Example 23, N-(3-(2-(2-aminopyrimidin-5-yl)-8-methoxy-4-morpholinoquinazolin-6-yl)-2-fluorophenyl)butane-1-sulfonamide], the IC50 in test [1] and in test [2] was 100 to 1000 nM in each case.

Regarding `COc1cc(-c2cccc(NS(=O)(=O)CCCF)c2F)cc2c(N3CCOC[C@H]3C)nc(-c3cnc4[nH]ccc4c3)nc12` [Example 44, (R)-3-fluoro-N-(2-fluoro-3-(8-methoxy-4-(3-methylmorpholino)-2-(1H-pyrrolo[2,3-b]pyridin-5-yl)quinazolin-6-yl)phenyl)propane-1-sulfonamide], the IC50 in test [1] and in test [2] was 100 to 1000 nM each time.

`CCOc1cc(-c2cccc(NS(=O)(=O)CCCF)c2F)cc2c(N3CCOC[C@H]3C)nc(-c3cnc4[nH]ccc4c3)nc12` [Example 61, (R)-N-(3-(8-ethoxy-4-(3-methylmorphollno)-2-(1H-pyrrolo[2,3-b]pyridin-5-yl)quinazolin-6-yl)-2-fluorophenyl)-3-fluoropropane-1-sulfonamide]: the IC50 in test [1] was 1 to 100 nM; in test [2], 100 to 1000 nM.

Regarding `COc1cc(-c2cccc(NS(=O)(=O)CCCF)c2F)cc2c(N3CCOC[C@H]3C)nc(-c3cnc(N)cn3)nc12` [Example 143, (R)-N-(3-(2-(5-aminopyrazin-2-yl)-8-methoxy-4-(3-methylmorpholino)quinazolin-6-yl)-2-fluorophenyl)-3-fluoropropane-1-sulfonamide], the IC50 in test [1] lay within 1 to 100 nM; in test [2] it was 100 to 1000 nM.

For `CCCNc1ccc(-c2nc(N3CCOCC3)c3cc(-c4cccc(NS(=O)(=O)CCCF)c4F)cc(OC)c3n2)cn1` [Example 49, 3-fluoro-N-(2-fluoro-3-(8-methoxy-4-morpholino-2-(6-(propylamino)pyridin-3-yl)quinazolin-6-yl)phenyl)propane-1-sulfonamide], the IC50 in test [1] was 1 to 100 nM; in test [2], 100 to 1000 nM.

As for `COc1cc(-c2c(F)ccc(NS(=O)(=O)CCCF)c2F)cc2c(N3CCOCC3)nc(-c3cnc4[nH]ccc4c3)nc12` [Example 83], the IC50 is 1 to 100 nM in test [1] and 100 to 1000 nM in test [2].

Turning to `COc1cc(-c2cccc(NS(=O)(=O)CCCF)c2F)cc2c(N3CCOC[C@H]3C)nc(-c3cnc(N)cc3C#N)nc12` [Example 144, (R)-N-(3-(2-(6-amino-4-cyanopyridin-3-yl)-8-methoxy-4-(3-methylmorpholino)quinazolin-6-yl)-2-fluorophenyl)-3-fluoropropane-1-sulfonamide], the IC50 in test [1] lay in the range of 1 to 100 nM; in test [2], 100 to 1000 nM.

In the case of `C[C@@H]1COCCN1c1nc(-c2ccc(N)nc2)nc2c(N3CCOCC3)cc(-c3cccc(NS(=O)(=O)CCCF)c3F)cc12` [Example 72, (R)-N-(3-(2-(6-aminopyridin-3-yl)-4-(3-methylmorpholino)-8-morpholinoquinazolin-6-yl)-2-fluorophenyl)-3-fluoropropane-1-sulfonamide], the IC50 in test [1] and in test [2] was 1 to 100 nM each time.

In the case of `C[C@@H]1COCCN1c1nc(-c2cnc(N)c(F)c2)nc2c(OCCF)cc(-c3cccc(NS(=O)(=O)CCCF)c3F)cc12` [Example 142, (R)-N-(3-(2-(6-amino-5-fluoropyridin-3-yl)-8-(2-fluoroethoxy)-4-(3-methylmorpholino)quinazolin-6-yl)-2-fluorophenyl)-3-fluoropropane-1-sulfonamide], the IC50 in test [1] was in the range of 1 to 100 nM; in test [2], 100 to 1000 nM.

In the case of `COCCNc1ccc(-c2nc(N3CCOCC3)c3nc(-c4cccc(NS(=O)(=O)CCCF)c4F)ccc3n2)cn1` [Example 133, 3-fluoro-N-(2-fluoro-3-(2-(6-((2-methoxyethyl)amino)pyridin-3-yl)-4-morpholinopyrido[3,2-d]pyrimidin-6-yl)phenyl)propane-1-sulfonamide], the results for the IC50 in test [1] and in test [2] were 1 to 100 nM and 100 to 1000 nM, respectively.

For `CCCS(=O)(=O)Nc1cccc(-c2cc(OCCO)c3nc(-c4ccc(N)nc4)nc(N4CCOCC4)c3c2)c1F` [Example 4, N-(3-(2-(6-aminopyridin-3-yl)-8-(2-hydroxyethoxy)-4-morpholinoquinazolin-6-yl)-2-fluorophenyl)propane-1-sulfonamide], the IC50 in test [1] and in test [2] was 100 to 1000 nM throughout.

For the compound `COc1cc(-c2cccc(NS(=O)(=O)c3ccc(F)cc3F)c2F)cc2c(N3CCOCC3)nc(-c3cnc(N)nc3)nc12` [Example 24, N-(3-(2-(2-aminopyrimidin-5-yl)-8-methoxy-4-morpholinoquinazolin-6-yl)-2-fluorophenyl)-2,4-difluorobenzenesulfonamide], the IC50 in test [1] and in test [2] was 100 to 1000 nM throughout.

On to `CCOc1cc(-c2cccc(NS(=O)(=O)CCCF)c2F)cc2c(N3CCOC[C@@H]3C)nc(-c3cnc(N)nc3)nc12` [Example 66], for which the IC50 lay in the range of 1 to 100 nM in test [1] and 100 to 1000 nM in test [2].

Take `COc1cc(-c2cccc(NS(=O)(=O)CCCF)c2F)cc2c(N3CCOCC3)nc(-c3cnc(N)nc3C)nc12` [Example 35, N-(3-(2-(2-amino-4-methylpyrimidin-5-yl)-8-methoxy-4-morpholinoquinazolin-6-yl)-2-fluorophenyl)-3-fluoropropane-1-sulfonamide]: the IC50 in test [1] lay within 1 to 100 nM; in test [2], 100 to 1000 nM.
